According to PMC10571957, “αV-Integrin-Dependent Inhibition of Glioblastoma Cell Migration, Invasion and Vasculogenic Mimicry by the uPAcyclin Decapeptide” (Cancers, 2023):
“And” between values parts separate entries of the source, which are not always exact repeats. Equal entries are not always repeated.

How the values were obtained:
U251-MG cells = test: Boyden chamber Matrigel invasion, U251-MG; format: cell-based, human; conditions: for invasion, % of basal, average 2 expts: mean of 2 expts; for invasion, % of basal, average expt 1: mean of expt 1; for invasion, % of basal, average expt 2: mean of expt 2; for invasion, % of basal, T-test list: single replicates of both expts
Method: The migration and invasion assays were performed using Boyden chambers and 8 µm pore size PVP-free filters coated with 50 µg/mL of collagen type VI (Sigma), as previously described. For the invasion assays, collagen-coated filters were further coated with 50 µg/mL Matrigel^TM (Sigma). Briefly, 11 × 10^4 U87-MG, 4 × 10^4 U251-MG, or 4 × 10^4 U138-MG/sample were pre-treated for 40 min at 37 °C with the indicated effectors. Then, the cells were allowed to migrate for 3 h or to invade for 5 h at 37 °C toward 5% FBS in DMEM/0.1% BSA. At the end of both assays, the cells on the lower filter surface were fixed, stained with haematoxylin, and counted under an optical microscope (Zeiss Axiophot, Carl Zeiss, Milan, Italy) at 20× magnification. The migration and invasion experiments were conducted in triplicate for U87-MG and in duplicate for U251-MG and U138-MG. The migrated or invaded cells were reported as percentage of basal migration or invasion in the presence of DMEM/0.1% BSA, taken as 100%, and analyzed as reported in Section 2.11.
Figure 4 Effect of uPAcyclin on matrix invasion of U87-MG, U251-MG, and U138-MG GBM cells. Quantitative analysis of U87-MG (A), U251-MG (B), and U138-MG (C) invasion. A total of 11 × 10^4 U87-MG or […] U251-MG or U138-MG/sample were pre-treated for 40 min at 37 °C with uPAcyclin (100 nM, 1 µM), anti-αV polyclonal (anti-αV-Pclonal) or monoclonal (anti-αV MoAb) antibody, or anti-actin polyclonal antibody (anti-actin), and then assayed in Boyden chambers at 37 °C, either for basal (BSA) or FBS-dependent invasion (5% FBS) for 5 h at 37 °C. Data are expressed as in the legend to Figure 3. Results are expressed as percentages with respect to the basal invasion, considered as 100% (* p-value < 0.05; ** p-value < 0.005; *** p-value < 0.001).

C6 cells = test: Vasculogenic mimicry (tube formation on Geltrex), C6; format: cell-based, rat; conditions: C6, 16 h
Method: The tube formation assay was performed in 96-well plates pre-coated with 50 µL/well of Geltrex^TM (Thermofisher, Scientific, Waltham, MA, USA), and polymerized for 30 min at 37 °C. Briefly, 3 × 10^4 U87-MG, 1.5 × 10^4 U251, and 1 × 10^4 C6 cells/100µL/well were plated onto Geltrex^TM and monitored at 37 °C for the indicated times. The specific effectors were included at time 0. The formation of vascular-like structures by Geltrex^TM-plated U87-MG and U251-MG cells was monitored for 24 h, whereas C6 cells were tested for 16 h. The evaluation of the branching point number, defined as the intersection of at least 3 tubes [24], was performed using the Inverted Microscope DMI Leica 6000 for the U87-MG and U251-MG cells and the Inverted Microscope Axiovert 25 for the C6 cells. At the indicated times, the number of “branching points” was assessed in 4/5 random fields using the ImageJ 1.52a Software.
Figure 7 Vascular mimicry formation by C6 rat cells and inhibition by uPAcyclin. […] (B) After 16 h, the number of branching points was evaluated as described in the legend to Figure 5 and reported in the relative histogram (*** p-value < 0.001).

[1] = 100 nM, 5% FBS, 5 h, expt 1, duplicates
[2] = 100 nM, 5% FBS, 5 h, expt 2, duplicates
[3] = 1 µM, 5% FBS, 5 h, expt 1, duplicates
[4] = 1 µM, 5% FBS, 5 h, expt 2, duplicates

## Ac-K^1P[ESPPEELK^10]-NH2 (sidechain bridge or staple) [uPAcyclin]
U251-MG cells; 100 nM, U251-MG, 5% FBS, 5 h
  reduction in invasion: 50–60%
U251-MG cells; [1]
  invaded cell number/field: 14 cell number/field
  invasion, % of basal: 156%
U251-MG cells; [2]
  invaded cell number/field: 15 cell number/field and 14 cell number/field
  invasion, % of basal: 136% and 127%
U251-MG cells; 100 nM, 5% FBS, 5 h
  invasion, % of basal, average 2 expts: 144%
  invasion, % of basal, average expt 1: 156%
  invasion, % of basal, average expt 2: 132%
U251-MG cells; 100 nM
  invasion, % of basal, T-test list: 156 and 136 and 127
U251-MG cells; 1 µM, U251-MG, 5% FBS, 5 h
  invasion, in words: reduced invasion to basal levels
U251-MG cells; [3]
  invaded cell number/field: 11 cell number/field and 9 cell number/field
  invasion, % of basal: 122% and 100%
U251-MG cells; [4]
  invaded cell number/field: 12 cell number/field and 10 cell number/field
  invasion, % of basal: 109% and 91%
U251-MG cells; 1 µM, 5% FBS, 5 h
  invasion, % of basal, average 2 expts: 106%
  invasion, % of basal, average expt 1: 111%
  invasion, % of basal, average expt 2: 100%
U251-MG cells; 1 µM
  invasion, % of basal, T-test list: 122 and 100 and 109 and 91
C6 cells; 10 pM
  inhibition of branching point number: 40%
C6 cells; 100 nM
  inhibition of branching point number: 60%
